Laboratory results reported in patent US9636339B2, “Phenyl-dihydropyridine derivatives as aldosterone synthase inhibitors” (Hoffmann-La Roche Inc., priority 2013, dated 2017).

Columns and labels:
[1] = test system: rats with experimental heart failure; details: rat, in vivo; cited from earlier work
[2] = test system: rat model of chronic kidney disease; details: cited from earlier work; for plasma aldosterone: FAD286: 4 weeks of treatment, spironolactone: 4 and 8 weeks of treatment; for angiotensin II and salt-stimulated PAI-1 mRNA expression: aorta and heart; for renal effects of angiotensin II and high salt (albuminuria, azotemia, renovascular hypertrophy, glomerular injury, PAI-1, osteopontin mRNA, tubulointerstitial fibrosis): rat, in vivo
[3] = test system: patients with primary aldosteronism; details: oral; cited from earlier work
human CYP11B1 = human CYP11B1 (Homo sapiens (Human), UniProt P15538); assay: G-402 cellular enzyme assay, human CYP11B1 (cortisol release); format: cell-based; details: G-402 cells, 1 μM Deoxycortisol
Text: (§1) Herein we identified the use of the G-402 cell line as a host cell to ectopically express (transiently or stably) enzymes of the CYP11 family. Specifically we developed stable G-402 cells expressing ectopically human CYP11B1, human CYP11B2, human CYP11A1, cynmolgus CYP11B1 or cynomolgus CYP11B2 enzyme activity. Importantly the identified cell line G-402 expresses co-factors (adrenodoxin and adrenodoxin reductase) important for the activity of the CYP11 family and no relevant enzyme activity of the CYP11 family (in comparison to H295R cells) was detected in these cells. Therefore the G-402 cell line is uniquely suited as a host cell for the ectopic expression of enzymes from the CYP11 family. G-402 cells can be obtained from ATCC (CRL-1440) and were originally derived from a renal leiomyoblastoma.
(§2) The expression plasmids contains the ORF for either human/cyno CYP11B1 or CYP11B2 under the control of a suitable promoter (CMV-promoter) and a suitable resistance marker (neomycin). Using standard techniques the expression plasmid is transfected into G-402 cells and these cells are then selected for expressing the given resistance markers. Individual cell-clones are then selected and assessed for displaying the desired enzymatic activity using 11-Deoxycorticosterone (Cyp11B2) or 11-Deoxycortisol (Cyp11B1) as a substrate.
(§3) G-402 cells expressing CYP11 constructs were established as described above and maintained in McCoy's 5a Medium Modified, ATCC Catalog No. 30-2007 containing 10% FCS and 400 μg/ml G418 (Geneticin) at 37° C. under an atmosphere of 5% CO2/95% air. Cellular enzyme assays were performed in DMEM/F12 medium containing 2.5% charcoal treated FCS and appropriate concentration of substrate (0.3-10 uM 11-Deoxycorticosterone, 11-Deoxycortisol or Corticosterone). For assaying enzymatic activity, cells were plated onto 96 well plates and incubated for 16 h. An aliquot of the supernatant is then transferred and analyzed for the concentration of the expected product (Aldosterone for CYP11B2; Cortisol for CYP11B1). The concentrations of these steroids can be determined using HTRF assays from CisBio analyzing either Aldosterone or Cortisol.
(§4) Inhibition of the release of produced steroids can be used as a measure of the respective enzyme inhibition by test compounds added during the cellular enzyme assay. The dose dependent inhibition of enzymatic activity by a compound is calculated by means of plotting added inhibitor concentrations (x-axes) vs. measured steroid/product level (y-axes). The inhibition is then calculated by fitting the following 4-parameter sigmoidal function (Morgan-Mercer-Flodin (MMF) model) to the raw data points using the least squares method:
(§5) [formula] wherein, A is the maximum y value, B is the EC50 factor determined using XLFit, C is the minimum y value and D is the slope value.
(§6) EC50 values for compounds claimed herein were tested with the G402-based assay system described. Cyp11B2 enzyme activity was tested in presence of 1 μM Deoxycorticosterone and variable amounts of inhibitors; Cyp11B1 enzyme activity was tested in presence of 1 μM Deoxycortisol and variable amounts of inhibitors.

human CYP11B2 = human CYP11B2 (Homo sapiens (Human), UniProt P19099); assay: G-402 cellular enzyme assay, human CYP11B2 (aldosterone release); format: cell-based; details: G-402 cells, 1 μM Deoxycorticosterone
Text: as §1, §2, §3, §4, §5, §6

human CYP11B2, sequence (P19099 25-503): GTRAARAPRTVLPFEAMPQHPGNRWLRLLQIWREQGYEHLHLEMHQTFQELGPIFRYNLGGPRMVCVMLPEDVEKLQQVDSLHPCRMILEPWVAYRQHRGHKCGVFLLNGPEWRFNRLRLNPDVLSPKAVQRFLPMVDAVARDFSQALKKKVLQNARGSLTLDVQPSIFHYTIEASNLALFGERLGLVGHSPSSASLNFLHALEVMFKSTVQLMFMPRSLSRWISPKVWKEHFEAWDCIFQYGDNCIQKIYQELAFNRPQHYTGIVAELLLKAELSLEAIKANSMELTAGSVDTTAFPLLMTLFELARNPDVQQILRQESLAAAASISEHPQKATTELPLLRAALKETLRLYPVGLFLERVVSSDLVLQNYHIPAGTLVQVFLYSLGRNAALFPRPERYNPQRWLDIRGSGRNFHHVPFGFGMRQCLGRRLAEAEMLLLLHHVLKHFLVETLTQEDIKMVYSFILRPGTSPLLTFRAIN
human CYP11B1, sequence (P15538 25-503): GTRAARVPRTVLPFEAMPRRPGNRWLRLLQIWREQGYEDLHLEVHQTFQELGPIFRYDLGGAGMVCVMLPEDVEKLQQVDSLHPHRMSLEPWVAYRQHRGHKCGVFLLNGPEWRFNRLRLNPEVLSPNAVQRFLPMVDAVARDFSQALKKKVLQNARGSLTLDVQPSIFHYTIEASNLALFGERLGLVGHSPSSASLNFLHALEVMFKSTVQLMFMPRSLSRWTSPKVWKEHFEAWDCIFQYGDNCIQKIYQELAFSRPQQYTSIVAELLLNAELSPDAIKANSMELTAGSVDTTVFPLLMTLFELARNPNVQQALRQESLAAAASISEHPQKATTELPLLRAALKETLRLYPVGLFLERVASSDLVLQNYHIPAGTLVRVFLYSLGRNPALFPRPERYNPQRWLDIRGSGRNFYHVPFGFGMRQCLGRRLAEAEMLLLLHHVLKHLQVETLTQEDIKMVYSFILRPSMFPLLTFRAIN

| SMILES | EC50 (human CYP11B1) [nM] | EC50 (human CYP11B2) [nM] | other results |
| --- | --- | --- | --- |
| N#Cc1ccc([C@H]2CCCc3cncn32)cc1 [FAD286] |  |  | blood pressure and cardiovascular function and structure [1]: improved; kidney function and morphology [1]: improve; plasma aldosterone [2]: reduced; angiotensin II and salt-stimulated PAI-1 mRNA expression [2]: not; renal effects of angiotensin II and high salt (albuminuria, azotemia, renovascular hypertrophy, glomerular injury, PAI-1, osteopontin mRNA, tubulointerstitial fibrosis) [2]: prevented |
| N#Cc1ccc([C@H]2CCc3cncn32)c(F)c1 [LCI699] |  |  | blood pressure [3]: mildly decreased; circulating aldosterone levels [3]: significantly lower; hypokalemia [3]: corrected |
| C[C@H]1CCCN1C(=O)CC1CCc2c(-c3ccc(C(F)(F)F)cc3F)cncc21 (mixture of isomers) [Example 22, (rac)-2-[4-[2-Fluoro-4-(trifluoromethyl)phenyl]-6,7-dihydro-5H-cyclopenta[c]pyridin-7-yl]-1-[(2S)-2-methylpyrrolidin-1-yl]ethanone] | 278 | 6 |  |
| O=C(CC1CCc2c(-c3ccc(C(F)(F)F)cc3F)cncc21)N1CCC1 (racemic) [Example 18, (rac)-1-(Azetidin-1-yl)-2-[4-[2-fluoro-4-(trifluoromethyl)phenyl]-6,7-dihydro-5H-cyclopenta[c]pyridin-7-yl]ethanone] | 2680 | 48 |  |
| COC1CN(C(=O)CC2CCc3c(-c4ccc(C(F)(F)F)cc4F)cncc32)C1 (racemic) [Example 20, (rac)-2-[4-[2-Fluoro-4-(trifluoromethyl)phenyl]-6,7-dihydro-5H-cyclopenta[c]pyridin-7-yl]-1-(3-methoxyazetidin-1-yl)ethanone] | 1490 | 53 |  |
| CC(C)N(C)C(=O)CC1CCc2c(-c3ccc(C(F)(F)F)cc3F)cncc21 (racemic) [Example 15, (rac)-2-[4-[2-Fluoro-4-(trifluoromethyl)phenyl]-6,7-dihydro-5H-cyclopenta[c]pyridin-7-yl]-N-isopropyl-N-methyl-acetamide] | 1310 | 18 |  |
| CC(=O)S[C@@H]1CC2=CC(=O)CC[C@]2(C)[C@H]2CC[C@@]3(C)[C@@H](CC[C@@]34CCC(=O)O4)[C@H]12 [spironolactone] |  |  | plasma aldosterone [2]: increased; angiotensin II and salt-stimulated PAI-1 mRNA expression [2]: enhanced; renal effects of angiotensin II and high salt (albuminuria, azotemia, renovascular hypertrophy, glomerular injury, PAI-1, osteopontin mRNA, tubulointerstitial fibrosis) [2]: prevented |
| CCNC(=O)CC1CCc2c(-c3ccc(C(F)(F)F)c(F)c3)cncc21 (racemic) [Example 3, (rac)-2-[4-[3-Fluoro-4-(trifluoromethyl)phenyl]-6,7-dihydro-5H-cyclopenta[c]pyridin-7-yl]-N-ethyl-acetamide] | 69 | 13 |  |
| CCN(C)C(=O)CC1CCc2c(-c3ccc(C(F)(F)F)cc3F)cncc21 (racemic) [Example 14, (rac)-N-Ethyl-2-[4-[2-fluoro-4-(trifluoromethyl)phenyl]-6,7-dihydro-5H-cyclopenta[c]pyridin-7-yl]-N-methyl-acetamide] | 2120 | 44 |  |
| O=C(CC1CCc2c(-c3ccc(C(F)(F)F)cc3F)cncc21)N1CC(CO)C1 (racemic) [Example 19, (rac)-2-[4-[2-Fluoro-4-(trifluoromethyl)phenyl]-6,7-dihydro-5H-cyclopenta[c]pyridin-7-yl]-1-[3-(hydroxymethyl)azetidin-1-yl]ethanone] | 1160 | 45 |  |
| CN(C)C(=O)CC1CCc2c(-c3ccc(C(F)(F)F)cc3F)cncc21 (racemic) [Example 13, (rac)-2-[4-[2-Fluoro-4-(trifluoromethyl)phenyl]-6,7-dihydro-5H-cyclopenta[c]pyridin-7-yl]-N,N-dimethyl-acetamide] | 9370 | 67 |  |
| O=C(CC1CCc2c(-c3ccc(C(F)(F)F)c(F)c3)cncc21)NC1CC1 (racemic) [Example 5, (rac)-N-Cyclopropyl-2-[4-[3-fluoro-4-(trifluoromethyl)phenyl]-6,7-dihydro-5H-cyclopenta[c]pyridin-7-yl]acetamide] | 217 | 13 |  |
